Reference: ChEMBL document CHEMBL1158278, “New macrocyclic spermine (budmunchiamine) alkaloids from Albizia gummifera: with some observations on the structure--activity relationships of the budmunchiamines” (J Nat Prod, 1996)
In brackets after ≈: the same amount, converted by molar mass.

How the values were obtained:
Staphylococcus aureus [1] = experiment: Antibacterial activity against Staphylococcus aureus NCTC 6751; format: functional
Pseudomonas aeruginosa [2] = experiment: Antibacterial activity against Pseudomonas aeruginosa NCTC 6750 at 50 ug/disk; format: functional; settings: read-out: IZ
Staphylococcus aureus [3] = experiment: Antibacterial activity against Staphylococcus aureus NCTC 6751 at 50 ug/disk; format: functional; settings: read-out: IZ
[4] = Toxicity against brine shrimp; format: organism-based; settings: artemia, in vivo
Escherichia coli [5] = experiment: Antibacterial activity against Escherichia coli NCTC 9001; format: functional
Escherichia coli [6] = experiment: Antibacterial activity against Escherichia coli NCTC 9001 at 50 ug/disk; format: functional; settings: read-out: IZ
Pseudomonas aeruginosa [7] = experiment: Antibacterial activity against Pseudomonas aeruginosa NCTC 6750; format: functional
Bacillus subtilis [8] = experiment: Antibacterial activity against Bacillus subtilis NCTC 8326; format: functional
Bacillus subtilis [9] = experiment: Antibacterial activity against Bacillus subtilis NCTC 8326 at 50 ug/disk; format: functional; settings: read-out: IZ

CCCCCCCCCCCCCCCC1CC(=O)NCCCN(C)CCCCN(C)CCCN1 (configuration not stated)
MIC (Staphylococcus aureus [1]): 15 µg/mL (≈ 30.3 µM)
zone of inhibition at 50 µg/disc (Pseudomonas aeruginosa [2]): 10 mm
zone of inhibition at 50 µg/disc (Staphylococcus aureus [3]): 12 mm
LC50 [4]: 16.5 µg/mL (≈ 33.3 µM)
MIC (Escherichia coli [5]): 27 µg/mL (≈ 54.6 µM)
zone of inhibition at 50 µg/disc (Escherichia coli [6]): 10 mm
MIC (Pseudomonas aeruginosa [7]): 32 µg/mL (≈ 64.7 µM)
MIC (Bacillus subtilis [8]): 20 µg/mL (≈ 40.4 µM)
zone of inhibition at 50 µg/disc (Bacillus subtilis [9]): 11 mm

CCCCCCCCCCCCCCCC1CC(=O)NCCCNCCCCN(C)CCCN1C (configuration not stated)
zone of inhibition at 50 µg/disc (Pseudomonas aeruginosa [2]): 10 mm
zone of inhibition at 50 µg/disc (Staphylococcus aureus [3]): 11 mm
LC50 [4]: 18.2 µg/mL (≈ 36.8 µM)
zone of inhibition at 50 µg/disc (Escherichia coli [6]): 9 mm
zone of inhibition at 50 µg/disc (Bacillus subtilis [9]): 10 mm

CCCCCCCCCCCCCCCC1CC(=O)NCCCN(C)CCCCNCCCN1C (configuration not stated)
zone of inhibition at 50 µg/disc (Pseudomonas aeruginosa [2]): 9 mm
zone of inhibition at 50 µg/disc (Staphylococcus aureus [3]): 11 mm
LC50 [4]: 15.9 µg/mL (≈ 32.1 µM)
zone of inhibition at 50 µg/disc (Escherichia coli [6]): 9 mm
zone of inhibition at 50 µg/disc (Bacillus subtilis [9]): 10 mm

CCCCCCCC(O)CCCCCC1CC(=O)NCCCN(C)CCCCN(C)CCCN1C (configuration not stated)
MIC (Staphylococcus aureus [1]): 35 µg/mL (≈ 70.4 µM)
zone of inhibition at 50 µg/disc (Pseudomonas aeruginosa [2]): 7 mm
zone of inhibition at 50 µg/disc (Staphylococcus aureus [3]): 8 mm
LC50 [4]: 79.7 µg/mL (≈ 160 µM)
MIC (Escherichia coli [5]): 72 µg/mL (≈ 145 µM)
zone of inhibition at 50 µg/disc (Escherichia coli [6]): 7 mm
MIC (Pseudomonas aeruginosa [7]): 84 µg/mL (≈ 169 µM)
MIC (Bacillus subtilis [8]): 45 µg/mL (≈ 90.6 µM)
zone of inhibition at 50 µg/disc (Bacillus subtilis [9]): 8 mm

CCCCCCCCCC(O)CCCCCC1CC(=O)NCCCN(C)CCCCN(C)CCCN1 (configuration not stated)
zone of inhibition at 50 µg/disc (Pseudomonas aeruginosa [2]): 7 mm
zone of inhibition at 50 µg/disc (Staphylococcus aureus [3]): 9 mm
LC50 [4]: 60.4 µg/mL (≈ 118 µM)
zone of inhibition at 50 µg/disc (Escherichia coli [6]): 7 mm
zone of inhibition at 50 µg/disc (Bacillus subtilis [9]): 9 mm

CCCCCCCCCC(O)CCCCCC1CC(=O)NCCCN(C)CCCCN(C)CCCN1C (configuration not stated)
MIC (Staphylococcus aureus [1]): 30 µg/mL (≈ 57.2 µM)
zone of inhibition at 50 µg/disc (Pseudomonas aeruginosa [2]): 8 mm
zone of inhibition at 50 µg/disc (Staphylococcus aureus [3]): 9 mm
LC50 [4]: 69.1 µg/mL (≈ 132 µM)
MIC (Escherichia coli [5]): 64 µg/mL (≈ 122 µM)
zone of inhibition at 50 µg/disc (Escherichia coli [6]): 7 mm
MIC (Pseudomonas aeruginosa [7]): 75 µg/mL (≈ 143 µM)
MIC (Bacillus subtilis [8]): 42 µg/mL (≈ 80 µM)
zone of inhibition at 50 µg/disc (Bacillus subtilis [9]): 8 mm

CCCCCCCCCCCC1CC(=O)NCCCN(C)CCCCN(C)CCCN1C (configuration not stated) [BUDMUNCHIAMINE A]
MIC (Staphylococcus aureus [1]): 18 µg/mL (≈ 39.8 µM)
zone of inhibition at 50 µg/disc (Pseudomonas aeruginosa [2]): 10 mm
zone of inhibition at 50 µg/disc (Staphylococcus aureus [3]): 10 mm
LC50 [4]: 4 µg/mL (≈ 8.83 µM)
MIC (Escherichia coli [5]): 25 µg/mL (≈ 55.2 µM)
zone of inhibition at 50 µg/disc (Escherichia coli [6]): 11 mm
MIC (Pseudomonas aeruginosa [7]): 30 µg/mL (≈ 66.3 µM)
MIC (Bacillus subtilis [8]): 15 µg/mL (≈ 33.1 µM)
zone of inhibition at 50 µg/disc (Bacillus subtilis [9]): 11 mm

CCCCCCCCCCCCCC1CC(=O)NCCCN(C)CCCCN(C)CCCN1 (configuration not stated) [BUDMUNCHIAMINE G]
MIC (Staphylococcus aureus [1]): 18 µg/mL (≈ 38.6 µM)
zone of inhibition at 50 µg/disc (Pseudomonas aeruginosa [2]): 9 mm
zone of inhibition at 50 µg/disc (Staphylococcus aureus [3]): 10 mm
LC50 [4]: 12.3 µg/mL (≈ 26.3 µM)
MIC (Escherichia coli [5]): 30 µg/mL (≈ 64.3 µM)
zone of inhibition at 50 µg/disc (Escherichia coli [6]): 10 mm
MIC (Pseudomonas aeruginosa [7]): 35 µg/mL (≈ 75 µM)
MIC (Bacillus subtilis [8]): 24 µg/mL (≈ 51.4 µM)
zone of inhibition at 50 µg/disc (Bacillus subtilis [9]): 12 mm

CCCCCCCCCCCCCCCC1CC(=O)NCCCN(C)CCCCN(C)CCCN1C (configuration not stated) [BUDMUNCHIAMINE K]
MIC (Staphylococcus aureus [1]): 15 µg/mL (≈ 29.5 µM)
zone of inhibition at 50 µg/disc (Pseudomonas aeruginosa [2]): 11 mm
zone of inhibition at 50 µg/disc (Staphylococcus aureus [3]): 11 mm
LC50 [4]: 6.6 µg/mL (≈ 13 µM)
MIC (Escherichia coli [5]): 24 µg/mL (≈ 47.2 µM)
zone of inhibition at 50 µg/disc (Escherichia coli [6]): 11 mm
MIC (Pseudomonas aeruginosa [7]): 28 µg/mL (≈ 55 µM)
MIC (Bacillus subtilis [8]): 19 µg/mL (≈ 37.3 µM)
zone of inhibition at 50 µg/disc (Bacillus subtilis [9]): 10 mm

O=C(N[C@H](CO)[C@H](O)c1ccc([N+](=O)[O-])cc1)C(Cl)Cl [CHLORAMPHENICOL]
MIC (Staphylococcus aureus [1]): 7 µg/mL (≈ 21.7 µM)
zone of inhibition at 50 µg/disc (Pseudomonas aeruginosa [2]): 17 mm
zone of inhibition at 50 µg/disc (Staphylococcus aureus [3]): 24 mm
MIC (Escherichia coli [5]): 12 µg/mL (≈ 37.1 µM)
zone of inhibition at 50 µg/disc (Escherichia coli [6]): 26 mm
MIC (Pseudomonas aeruginosa [7]): 26 µg/mL (≈ 80.5 µM)
MIC (Bacillus subtilis [8]): 7 µg/mL (≈ 21.7 µM)
zone of inhibition at 50 µg/disc (Bacillus subtilis [9]): 31 mm
